Holding throughout (assay type): in vivo, mouse
Assay [1] deals with C57BL/6 mice with coronary artery ligation for 60 minutes followed by reperfusion. Nature of the assay: Myocardial ischemia (60 minutes)/reperfusion, short-term (3 days) treatment: echocardiography and flow cytometry. As to the method:
(a) C57BL/6 mice with MI induced by coronary artery ligation for 60 minutes followed by reperfusion received three daily i.p. injections of ABR or PBS, starting at the time of reperfusion and administered on days 0, 1 and 2 post-MI. Cardiac function was assessed by echocardiography the day before surgery and on days 3, 7, 14 and 21 in the Sham (n=10), Sham+ABR (n=10), MI (n=22) and MI+3d ABR (n=13) groups. […] (F) Neutrophil and (G) monocyte counts in the bone marrow were increased 2 days after myocardial ischaemia/reperfusion in the MI+3d ABR group (n=6) compared to the MI group treated with PBS (n=6). (H) Neutrophil, (I) monocyte, and (J) macrophage numbers in the myocardium in the MI and MI+3d ABR groups on Day 2 post-MI. […] The P-values refer to the difference between the MI and the MI+3d ABR groups. The P-values for the repeated measurement experiments refer to the difference between the MI and the MI+3d ABR groups, analysed by 2-way ANOVA with Fisher LSD post-hoc evaluation. Only the significant P-values are shown. Data is presented as mean±SD.
Ultrasound measurements were performed at day −1 (baseline), 7, and 21 to assess cardiac function using a Vevo 770 echocardiographic imaging system with a 707B probe (VisualSonics, Toronto, Canada). In selected experiments, additional assessment was performed on days 3 and 14. The mice were anesthetized using 1-3% isoflurane and hair was carefully removed using depilatory cream. To maintain body temperature, the mice were placed in supine position on a heated surface (37° C.). Two-dimensional M-mode images were recorded in the parasternal short-axis view at the mid-papillary level. Five complete cardiac cycles were traced to calculate fractional shortening, ejection fraction, left ventricular systolic volume, and left ventricular diastolic volume by using the VisualSonics software.
Procedures were carried out as outlined in Example 2. In contrast to permanent ischemia, the coronary artery occlusion was maintained for 60 minutes followed by removal of the ligature, allowing for reperfusion of the ischemic myocardium. Three doses of 30 mg/Kg ABR-238901 diluted in PBS were administered by daily i.p. injections at the time of the reperfusion, and after 24 h and 48 h (FIG. 5A).
A general note: In flow cytometry, cells or beads pass a laser one at a time.

In assay [2] the test system is C57BL/6 mice with sepsis induced by bacterial lipopolysaccharide. Nature of the assay: LPS-induced sepsis: mortality over 7 days. The conditions noted are these: 30 mg/kg i.p. at 0 and 6 h after LPS; 7-day period. As for the experimental part: General animal care, induction of sepsis and treatments were performed as described under Example 7. We initially included a total of 10 mice per treatment group, pooled from two independent experiments. To assess mortality after induction of sepsis, the mice were monitored at least three times a day for 7 days. […] The final group size was n=9 mice in the ABR-238901-treated group, and n=10 in the PBS-treated group. The experimental layout is outlined in FIG. 14A. Mice showing clinical signs of terminal illness that fulfilled the pre-specified termination points specified in the ethical permit awarded by the Lund University Ethics Committee were euthanized. Weight loss more than 20% is not considered a clinical sign of terminal illness, but was defined by the Ethical Committee as an experiment termination criterion.

Assay [3] concerns BALB/c mice with induced myocarditis. Nature of the assay: Myocarditis induced by cardiac α-myosin peptide: flow cytometry of heart and heart-draining lymph nodes. The following applies: day 21. As to the method: Animal care, induction of myocarditis and treatments were performed as described above (Example 11) (n=10 mice per group). The mice were sacrificed on day 21, and hearts and mediastinal heart-draining lymph nodes were isolated.
Single cell suspensions were obtained from the organs by mechanic sectioning and enzymatic digestion, and the cells were stained with fluorescently-conjugated antibodies for analysis by flow cytometry. After euthanization, the mice were perfused intra-cardially with 20 ml ice-cold PBS, hearts and mediastinal lymph nodes were harvested and placed in PBS on ice. Hearts were cut in small pieces for 2 min while placed in digestion mixture containing 450 U/ml Collagenase I-S (Sigma-Aldrich, C0130), 125 U/ml Collagenase XI (Sigma-Aldrich, C7657), 60 U/ml Hyaluronidase Type I-S(Sigma-Aldrich H3506), 60 U/ml DNAse I (Sigma-Aldrich, DN25), and 20 mM HEPES (Fischer Scientific, SH3023701) in PBS, and thereafter incubated for 1 h at 37° C. with gentle agitation. Enzymatically-digested tissues were passed through a 70 μm cell strainer and washed twice with PBS. Mediastinal lymph nodes were passed through a 70 μm cell strainer and washed twice with PBS before staining. Single cell suspensions were stained in PBS with Zombie Aqua live/dead (BioLegend, 423102) for 10 min at RT followed by extracellular staining in FC-buffer (PBS, 0.5% BSA and 20 mM EDTA) with fluorescently-conjugated antibodies for 20 min on ice. The following monoclonal antibodies were used: anti-CD3ε (clone 145-2C11), anti-CD4 (clone OKT4), anti-CD8 (clone RPA-T8), anti-CD11b (clone EP1345Y), anti-CD11c (clone N418), anti-CD19 (clone 6D5), anti-CD44 (clone IM7), anti-CD45.2 (clone 104), anti-CD49b (clone DX5) anti-CD62L (clone MEL-14), […], anti-CD69 (clone X54-5/7.1), anti-CD115 (clone AFS98), anti-Ly-6C (clone HK1.4), anti-Ly-6G (clone 1A8), anti-MerTK (clone DS5MMER), anti-MHCII (clone M5/114.15.2), anti-Siglec-F (clone E50-2440). Appropriate single stains were performed using AbC Total Antibody Compensation Bead kit (Thermo Fischer Scientific) or with cells for live/dead. Flow cytometry analysis was done using a Gallios Flow Cytometer (Beckman Coulter) and data was analyzed using the FlowJo software (Tree Star).

[4] abbreviates: 2 days after ischemia/reperfusion.

As to `COc1ncc(S(=O)(=O)Nc2cncc(Cl)c2O)cc1Br` [ABR-238901, 5-bromo-N-(5-chloro-4-hydroxypyridin-3-yl)-6-methoxypyridine-3-sulfonamide], in assay [1] (30 mg/Kg i.p. at reperfusion, 24 h, 48 h, echocardiography, day 3), the “Left ventricular EF” value is recorded as 42%. In assay [1] (30 mg/Kg i.p. at reperfusion, 24 h, 48 h, echocardiography, day 7), the “Left ventricular EF, average” value was determined as 45%. Also, in assay [1] (30 mg/Kg i.p. at reperfusion, 24 h, 48 h, echocardiography, day 21), the “Left ventricular EF” value was 48%. Also, in assay [1] (setting [4]), the “Numbers of monocytes in the bone marrow” value is “increased” and the “Numbers of neutrophils in the bone marrow” value is reported as “increased”. Further, in assay [1] (3 days treatment), the “Average EDV vs MI control” value is reported as “no significant differences” and the “Average ESV vs MI control” value is reported as “no significant differences”. For the same compound, the “Cardiac output, average” value in assay [1] (3 days treatment, day 21) amounted to 15.7 mL/min. The “Macrophage infiltration in the myocardium” value in assay [1] (day 2 after ischemia/reperfusion) is recorded as “decreased”. In assay [2], the Animal survival was 100%. For the same compound, in assay [3], the “Cardiac eosinophil infiltration, percent of live CD45+ leukocytes” value came to 7.5%; the “Effector memory (CD44+CD62L−) CD4+ T cells in heart-draining lymph nodes, percent of live CD45+CD3+ T cells” value came out at 15.9%; the “Effector memory (CD44+CD62L−) CD8+ T cells in heart-draining lymph nodes, percent of live CD45+CD3+ T cells” value was found to be 23.3%; the “Infiltration of cDCs in the heart, % of live CD45+ leukocytes” value amounted to 5.7%. The “Total CD3+ T cells in heart-draining lymph nodes, % of live CD45+ leukocytes” value in assay [3] is listed as 59.5%.

The values above are taken from patent publication US20220378763A1, “COMPOUND FOR TREATMENT OF ACUTE INFLAMMATION IN THE MYOCARDIUM” (CALPROTECT AB, priority 2019, published 2022).
